Experiment [1] can be described thus: Cytotoxicity against HUVEC12 assessed as reduction in cell viability by MTT assay. The settings on record: Homo sapiens.
The subject of the next experiment is RKO. Put plainly: Antiproliferative activity against human RKO cells assessed as reduction in cell viability by MTT assay. The experiment is classed as functional, cell-based.
The test system of a further experiment is Enterococcus faecalis. Put plainly: Antimicrobial activity against Enterococcus faecalis ATCC 29212 by CLSI based two-fold serial dilution method. The experiment is classed as functional.
The next experiment deals with MCF7. Put plainly: Antiproliferative activity against human MCF7 cells assessed as reduction in cell viability by MTT assay. In kind it is functional, cell-based.
Experiment [2] relates to Staphylococcus aureus. Put plainly: Antibacterial activity against Staphylococcus aureus 745524 by CLSI based two-fold serial dilution method. In kind it is functional.
The next experiment has as its system Bacillus subtilis. The experiment in a line: Antibacterial activity against Bacillus subtilis BS01 by CLSI based two-fold serial dilution method. The experiment is classed as functional.
Another experiment relates to Bacillus thuringiensis. The experiment in a line: Antibacterial activity against Bacillus thuringiensis BT01 by CLSI based two-fold serial dilution method. In kind it is functional.
A further experiment deals with MGC-803. The experiment in a line: Antiproliferative activity against human MGC803 cells assessed as reduction in cell viability by MTT assay. In kind it is functional, cell-based.
The test system of experiment [3] is Staphylococcus aureus. The experiment in a line: Antibacterial activity against methicillin-resistant Staphylococcus aureus shhs-A1 by CLSI based two-fold serial dilution method. The experiment is classed as functional.
The test system of a further experiment is L02. The experiment in a line: Cytotoxicity against human L02 cells assessed as reduction in cell viability by MTT assay. The experiment is classed as cell-based.
In experiment [4] the test system is Staphylococcus aureus. The experiment in a line: Antibacterial activity against Staphylococcus aureus ATCC […] by CLSI based two-fold serial dilution method. The experiment is classed as functional. As to conditions: ATCC 29213.
A further experiment deals with HeLa. The experiment in a line: Antiproliferative activity against human HeLa cells assessed as reduction in cell viability by MTT assay. The experiment is classed as functional, cell-based.
The subject of another experiment is HepG2. The experiment in a line: Antiproliferative activity against human HepG2 cells assessed as reduction in cell viability by MTT assay. In kind it is functional, cell-based.
For a further experiment, the system named is A549. The experiment in a line: Antiproliferative activity against human A549 cells assessed as reduction in cell viability by MTT assay. In kind it is functional, cell-based.

≈ marks a conversion by molar mass, not a printed value.

Take `CSC1=C2C3=CC(=O)C(O)=C2[C@@H]2O[C@H](CC[C@H](C)/C=C(\C)C[C@@H](C)C[C@H](C)[C@]1(O)O3)[C@H](C)[C@H](O)[C@H]2C`: the IC50 in experiment [1] worked out at 6 µM; with RKO, 3.8 µM; in the experiment on MCF7, 2.3 µM; with MGC-803, 8.9 µM; in the experiment on L02 it was 2.2 µM; in the experiment with HeLa it was 5.4 µM. The IC50 in the experiment with HepG2 stood at 6.7 µM; in the experiment on A549 it was 6.8 µM. Besides, the MIC in the experiment on Enterococcus faecalis was 0.5 µg/mL (≈ 0.964 µM); with Staphylococcus aureus [2] it was 1 µg/mL (≈ 1.93 µM); against Bacillus subtilis, 2 µg/mL (≈ 3.86 µM); in the experiment on Bacillus thuringiensis, 0.5 µg/mL (≈ 0.964 µM); with Staphylococcus aureus [3], 1 µg/mL (≈ 1.93 µM); against Staphylococcus aureus [4], 0.5 µg/mL (≈ 0.964 µM).

As to `C/C1=C\[C@@H](C)CC[C@H]2O[C@@H](C3=C(O)C(=O)C=C4O[C@](O)(C=C43)[C@@H](C)C[C@H](C)C1)[C@H](C)[C@@H](O)[C@H]2C`, the IC50 in [1] is 6 µM; in the experiment with RKO it was 6.1 µM; with MCF7, 5.1 µM; in the experiment with MGC-803 it was 3.3 µM; with L02, 7.4 µM; with HeLa, 4.9 µM. For the same compound, the IC50 in the experiment with HepG2 stood at 22 µM; with A549 it was 8 µM. The minimal inhibitory concentration (MIC) in the experiment with Enterococcus faecalis turned out to be 2 µg/mL (≈ 4.23 µM); against Staphylococcus aureus [2], 1 µg/mL (≈ 2.12 µM); with Bacillus subtilis, 2 µg/mL (≈ 4.23 µM); with Bacillus thuringiensis it was 1 µg/mL (≈ 2.12 µM); against Staphylococcus aureus [3], 2 µg/mL (≈ 4.23 µM); against Staphylococcus aureus [4], 0.5 µg/mL (≈ 1.06 µM).

As for `COc1cccc2c1C(=O)c1c(O)c3c(c(O)c1C2=O)C[C@@](O)(C(=O)CO)C[C@@H]3O[C@H]1C[C@H](N)[C@H](O)[C@H](C)O1` [DOXORUBICIN], the IC50 in experiment [1] was 7.2 µM; with RKO, 1.5 µM; in the experiment on MCF7 it was 0.8 µM; in the experiment with MGC-803, 3.6 µM; in the experiment with L02, 8.6 µM; in the experiment with HeLa, 0.8 µM. In addition, the IC50 in the experiment on HepG2 stood at 0.7 µM.

Take `CC1(C)S[C@@H]2[C@H](NC(=O)[C@H](N)c3ccccc3)C(=O)N2[C@H]1C(=O)O` [AMPICILLIN]: the MIC was 2 µg/mL (≈ 5.72 µM) against Enterococcus faecalis; 0.25 µg/mL (≈ 0.715 µM) against Bacillus subtilis; 32 µg/mL (≈ 91.6 µM) against Bacillus thuringiensis; 1 µg/mL (≈ 2.86 µM) in the experiment on Staphylococcus aureus [3]; 2 µg/mL (≈ 5.72 µM) with Staphylococcus aureus [4].

For the compound `CC(=O)N[C@@H](CSC1=C2C3=CC(=O)C(O)=C2[C@@H]2O[C@H](CC[C@H](C)/C=C(\C)C[C@@H](C)C[C@H](C)[C@]1(O)O3)[C@H](C)[C@H](O)[C@H]2C)C(=O)O`, the IC50 was above 50 µM in experiment [1]; 34 µM with RKO; 13 µM in the experiment with MCF7; 7.1 µM with MGC-803; 6.2 µM in the experiment on L02; 7.1 µM in the experiment on HeLa. Besides, the IC50 in the experiment with HepG2 is 44 µM; in the experiment on A549 it was 26 µM. Besides, the MIC worked out at 4 µg/mL (≈ 6.31 µM) with Enterococcus faecalis; 2 µg/mL (≈ 3.16 µM) in the experiment on Staphylococcus aureus [2]; 8 µg/mL (≈ 12.6 µM) in the experiment with Bacillus subtilis; 2 µg/mL (≈ 3.16 µM) against Bacillus thuringiensis; 4 µg/mL (≈ 6.31 µM) in the experiment with Staphylococcus aureus [3]; 1 µg/mL (≈ 1.58 µM) with Staphylococcus aureus [4].

On to `CN[C@H](CC(C)C)C(=O)N[C@H]1C(=O)N[C@@H](CC(N)=O)C(=O)N[C@H]2C(=O)N[C@H]3C(=O)N[C@H](C(=O)N[C@H](C(=O)O)c4cc(O)cc(O)c4-c4cc3ccc4O)[C@H](O)c3ccc(c(Cl)c3)Oc3cc2cc(c3O[C@@H]2O[C@H](CO)[C@@H](O)[C@H](O)[C@H]2O[C@H]2C[C@](C)(N)[C@H](O)[C@H](C)O2)Oc2ccc(cc2Cl)[C@H]1O` [VANCOMYCIN], for which the MIC against Bacillus subtilis was determined as 1 µg/mL (≈ 0.69 µM); in the experiment on Bacillus thuringiensis, 2 µg/mL (≈ 1.38 µM).

As to `NC[C@H]1O[C@H](O[C@H]2[C@H](O)[C@@H](O[C@H]3O[C@H](CO)[C@@H](O)[C@H](N)[C@H]3O)[C@H](N)C[C@@H]2N)[C@H](O)[C@@H](O)[C@@H]1O` [KANAMYCIN], the MIC was 32 µg/mL (≈ 66 µM) with Enterococcus faecalis; 64 µg/mL (≈ 132 µM) in the experiment with Staphylococcus aureus [2]; 8 µg/mL (≈ 16.5 µM) in the experiment with Bacillus subtilis; 8 µg/mL (≈ 16.5 µM) against Bacillus thuringiensis; 64 µg/mL (≈ 132 µM) in the experiment on Staphylococcus aureus [3]; 16 µg/mL (≈ 33 µM) in the experiment on Staphylococcus aureus [4].

For the origin of these results see ChEMBL document CHEMBL4414662, “Cytotoxic Kendomycins Containing the Carbacylic Ansa Scaffold from the Marine-Derived Verrucosispora sp. SCSIO 07399” (J Nat Prod, 2019).
